Measured values from patent publication US7262177B2, “Conjugates of glycosylated/galactosylated peptide, bifunctional linker, and nucleotidic monomers/polymers, and related compositions and methods of use” (priority 2000, dated 2007).
Read-outs that look alike come from different tables or passages of the source. Each block holds one compound with its values, some of them ahead of it.

Legend:
[1] = molecular target: T1, thymidylate synthase (TS) (Homo sapiens, UniProt P04818); assay: Thymidylate synthase activity in treated Hep G2 cells; format: cell-based; settings: 1 μM, 96 hrs post treatment
T1 construct: endogenous in cells; host or cells: Hep G2
Method: Briefly, 10^5 Hep G2 or TSU cells were grown in culture for 48 h and then the medium was made to a concentration of 1 μM with either po 1-mer or unconjugated 5FdU. At regular intervals (24 hrs, 48 hrs, 72 hrs and 96 hrs) after treatment, the medium was removed and replaced with medium containing deoxyuridine/[^3H]-deoxyuridine mixtures. Cells were incubated at 37° C. for 30 min. Cell medium was then removed and precipitated with charcoal. The supernatant was then counted to determine the presence of [^3H]-H2O. The measurable release of [^3H] as [^3H]-H2O from deoxyuridine, 5′-monophosphate (dUMP) substrate reflects thymidylate synthase activity.

[2] = molecular target: T2, thymidylate synthetase (TS) (Mus musculus, UniProt P07607); assay: Thymidylate synthetase activity in mouse liver extract ([5-3H]-dUMP tritium release); format: biochemical, CD-1 mouse
T2 construct: from tissue; host or cells: CD-1 mouse liver, supernatant of homogenate
Method: A CD-1 mouse (Charles River, Wilmington, Mass.) was sacrificed and the liver removed. Approximately one gram of the tissue was subsequently washed in DPBS (Mediatech, Herndon, Va.) and placed in 3 volumes of buffer H. The tissue was then homogenized with a Dounce homogenizer and subsequently sonicated by three 15-second bursts followed by 1 min on ice. The tissue extract was then centrifuged for 10 min at 4,000 g and the resultant supernatant was spun for 20 min at 7,000 g. Three equal aliquots of this supernatant were then added to 0.9 μCi aliquots of 2′-Deoxyuridine 5′-monophosphate, diammonium salt, [5-^3H]. At this point, 5-Fluoro-2′-deoxyuridine 5′-monothiophosphate was added to one aliquot, 5-Fluoro-2′-deoxyuridine 5′-monophosphate was added to a second aliquot, and one aliquot was left untreated. The three samples were incubated at 37° C. for 30 min and precipitated with charcoal. The resultant supernatant was centrifuged at 1,600 g for 10 min. Aliquots of each sample were then counted using a Beckman scintillation counter. Percent (%) inhibition is expressed as follows: […]
These assays determined the ability of either 10 nM FdUMP (phosphodiester substrate) or FdUMPS (phosphorothioate substrate) to inhibit thymidylate synthetase (TS) activity. The objective of this assay was to determine the ability of TS to convert [5-^3H]-dUMP to ^3H-H2O.

Hep G2 cells = assay: Cellular uptake of 5FU 1-mer conjugates by Hep G2 cells; format: cell-based, human; settings: 1 μM, 480 min
Method: Hep G2 cells were passaged into 2 cm^2 wells and grown in RPMI 1640 medium, which was supplemented with L-glutamine (10-040, CV) to a density of 0.3×10^6 to 0.4×10^6 cells per well (48-well cluster plate, Costar, Cambridge, Mass.). […] Then, an aliquot of the medium was saved for scintillation counting and the remainder of the medium aspirated from the well. The cells were washed with D-PBS (2×0.5 ml), treated with 0.25% trypsin (37° C., 2 minutes; trypsin prepared in HBSS with 1.0 mM EDTA) and suspended in fresh growth medium containing 10% FCS. The suspended cells were layered over silicon oil (0.5 ml) in a 1.7 ml conical microcentrifuge tube and pelleted by centrifugation at 14,000 rpm (12,000 g) for 30 seconds. The supernatant was carefully decanted and the cell pellet was lysed with 100 μl of a solution containing 0.5% NP 40, 100 mM sodium chloride, 14 mM Tris/HCl and 30% acetonitrile. The amount of radioactivity, and by inference the amount of neoglycoconjugate or oligomer associated with the cell lysate, was determined by scintillation counting.

[3] = Stability of 1-mer conjugates in RPMI 1640+10% FCS (PAGE); format: in vitro ADME; settings: up to 8 hrs, PAGE analysis
Method: Initially, the stability of the two neoglycoconjugates was assessed in RPMI 1640+10% FCS. […] In terms of cellular uptake, the po-linked conjugate at a dose of 1 μM was taken up rapidly in a progressive manner by Hep G2 cells in vitro to the extent of 24.75 pmoles/10^6 cells at 480 min. The rate of cellular uptake was next analyzed with respect to the administered dose of the conjugate. […] This amount doubled within the next 30 min and peaked at 25 pmoles/million cells at 480 min. […] While the administration of 4 μM conjugate led to a linear increase of conjugate uptake with respect to time, the rate at which cellular uptake occurred upon the administration of 8 μM conjugate rose sharply at 120 min.
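For % injected dose in BLADDER in this document: male CD-1 mice given radiolabeled test agent intravenously, organs removed at each time point and dissolved, radioactivity per organ measured by scintillation counting with efficiency correction.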
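For % injected dose in BLOOD in this document: male CD-1 mice given radiolabeled test agent intravenously, organs removed at each time point and dissolved, radioactivity per organ measured by scintillation counting with efficiency correction.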
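For % injected dose in HEART in this document: male CD-1 mice given radiolabeled test agent intravenously, organs removed at each time point and dissolved, radioactivity per organ measured by scintillation counting with efficiency correction.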
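For % injected dose in KIDNEY in this document: male CD-1 mice given radiolabeled test agent intravenously, organs removed at each time point and dissolved, radioactivity per organ measured by scintillation counting with efficiency correction.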

T2 sequence (P07607 whole entry): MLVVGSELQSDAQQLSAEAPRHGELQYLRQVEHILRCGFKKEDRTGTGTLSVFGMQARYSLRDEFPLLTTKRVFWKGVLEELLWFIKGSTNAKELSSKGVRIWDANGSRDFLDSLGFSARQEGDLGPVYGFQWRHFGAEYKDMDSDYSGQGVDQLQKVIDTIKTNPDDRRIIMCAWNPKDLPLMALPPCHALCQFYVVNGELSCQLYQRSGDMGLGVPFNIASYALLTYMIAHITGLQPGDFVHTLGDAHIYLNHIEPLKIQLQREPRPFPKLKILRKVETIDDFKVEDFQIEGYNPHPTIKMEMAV
T1 sequence (P04818 2-313 limits assumed): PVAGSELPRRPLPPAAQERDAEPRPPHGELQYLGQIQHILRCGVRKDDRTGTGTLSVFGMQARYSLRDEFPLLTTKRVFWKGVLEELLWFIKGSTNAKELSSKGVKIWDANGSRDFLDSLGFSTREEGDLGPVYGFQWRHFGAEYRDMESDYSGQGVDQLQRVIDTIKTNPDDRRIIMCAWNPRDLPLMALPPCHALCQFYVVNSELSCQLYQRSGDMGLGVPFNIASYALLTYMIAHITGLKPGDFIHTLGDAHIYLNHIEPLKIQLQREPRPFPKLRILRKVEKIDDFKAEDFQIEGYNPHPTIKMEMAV

- % injected dose in BLADDER (15 MIN after tail vein i.v.): 0.91 ± 0.07%
- % injected dose in BLOOD (15 MIN after tail vein i.v.): 0.03 ± 0.02%
- % injected dose in HEART (15 MIN after tail vein i.v.): 0.21 ± 0.13%
- % injected dose in KIDNEY (15 MIN after tail vein i.v.): 0.42 ± 0.28%
- % injected dose in LG INT (15 MIN after tail vein i.v.): 1.09 ± 0.25%
- % injected dose in LIVER (15 MIN after tail vein i.v.): 9.56 ± 3.83%
- % injected dose in LUNGS (15 MIN after tail vein i.v.): 0.17 ± 0.07%
- % injected dose in MUSCLE (15 MIN after tail vein i.v.): 9.29 ± 4.9%
- % injected dose in SM INT (15 MIN after tail vein i.v.): 0.7 ± 0.04%
- % injected dose in SPLEEN (15 MIN after tail vein i.v.): 0.11 ± 0.044%
- % injected dose in LIVER (15 MIN after tail vein i.v., listed as unconjugated 5FdU): less than 10%
- % injected dose in BLADDER (30 MIN after tail vein i.v.): 2.3 ± 1.58%
- % injected dose in BLOOD (30 MIN after tail vein i.v.): .008 ± .0025%
- % injected dose in HEART (30 MIN after tail vein i.v.): 0.03 ± .004%
- % injected dose in KIDNEY (30 MIN after tail vein i.v.): 0.38 ± 0.3%
- % injected dose in LG INT (30 MIN after tail vein i.v.): 0.37 ± 0.19%
- % injected dose in LIVER (30 MIN after tail vein i.v.): 8.8 ± 1.23%
- % injected dose in LUNGS (30 MIN after tail vein i.v.): 0.05 ± 0.006%
- % injected dose in MUSCLE (30 MIN after tail vein i.v.): 3.43 ± 1.06%
- % injected dose in SM INT (30 MIN after tail vein i.v.): 0.61 ± 0.36%
- % injected dose in SPLEEN (30 MIN after tail vein i.v.): 0.19 ± 0.26%
- % injected dose in BLADDER (60 MIN after tail vein i.v.): 2.99 ± 1.01%
- % injected dose in BLOOD (60 MIN after tail vein i.v.): .007 ± .0023%
- % injected dose in HEART (60 MIN after tail vein i.v.): 0.28 ± 0.11%
- % injected dose in KIDNEY (60 MIN after tail vein i.v.): 0.84 ± 0.31%
- % injected dose in LG INT (60 MIN after tail vein i.v.): 1.04 ± 0.2%
- % injected dose in LIVER (60 MIN after tail vein i.v.): 4.35 ± 1.35%
- % injected dose in LUNGS (60 MIN after tail vein i.v.): 0.98 ± 0.3%
- % injected dose in MUSCLE (60 MIN after tail vein i.v.): 22.84%
- % injected dose in SM INT (60 MIN after tail vein i.v.): 3.57 ± 1.3%
- % injected dose in SPLEEN (60 MIN after tail vein i.v.): 0.57 ± 0.18%
- % injected dose in BLADDER (240 MIN after tail vein i.v.): 0.010 ± .015%
- % injected dose in BLOOD (240 MIN after tail vein i.v.): 0.56 ± 0.28%
- % injected dose in HEART (240 MIN after tail vein i.v.): 0.32 ± 0.10%
- % injected dose in KIDNEY (240 MIN after tail vein i.v.): 0.44 ± 0.12%
- % injected dose in LG INT (240 MIN after tail vein i.v.): 1.61 ± 0.59%
- % injected dose in LIVER (240 MIN after tail vein i.v.): 3.97 ± 0.37%
- % injected dose in LUNGS (240 MIN after tail vein i.v.): 1.03 ± 0.39%
- % injected dose in MUSCLE (240 MIN after tail vein i.v.): 46.56%
- % injected dose in SM INT (240 MIN after tail vein i.v.): 4.19 ± 1.18%
- % injected dose in SPLEEN (240 MIN after tail vein i.v.): 0.38 ± 0.04%
- % injected dose in BLADDER (480 MIN after tail vein i.v.): .001 ± .0006%
- % injected dose in BLOOD (480 MIN after tail vein i.v.): 0.23 ± 0.14%
- % injected dose in HEART (480 MIN after tail vein i.v.): 0.06 ± .02%
- % injected dose in KIDNEY (480 MIN after tail vein i.v.): 0.13 ± .044%
- % injected dose in LG INT (480 MIN after tail vein i.v.): 0.35 ± 0.09%
- % injected dose in LIVER (480 MIN after tail vein i.v.): 1.25 ± 0.33%
- % injected dose in LUNGS (480 MIN after tail vein i.v.): 0.08 ± 0.04%
- % injected dose in MUSCLE (480 MIN after tail vein i.v.): 7.9 ± 1.64%
- % injected dose in SM INT (480 MIN after tail vein i.v.): 1.37 ± 0.7%
- % injected dose in SPLEEN (480 MIN after tail vein i.v.): 0.09 ± 0.05%
- reduction of TS activity [1]: approximately 20%
SMILES: O=c1[nH]c(=O)n([C@H]2C[C@H](O)[C@@H](CO)O2)cc1F [5FdU, 5-fluoro-2′-deoxyuridine]

- biological activity relative to FdUMPS ([2]; 10 nM): approximately twice
- inhibition at 0.01 µM ([2]; 10 nM inhibitor, 1 μM dUMP, read-out: Percent Inhibition of Thymidylate Synthetase Activity): 48%
- inhibition at 0.01 µM ([2]; 10 nM inhibitor, 10 μM dUMP, read-out: Percent Inhibition of Thymidylate Synthetase Activity): 28%
SMILES: O=c1[nH]c(=O)n([C@H]2C[C@H](O)[C@@H](COP(=O)(O)O)O2)cc1F [FdUMP, 5-Fluoro-2′-deoxyuridine 5′-monophosphate]

SMILES: O=c1[nH]c(=O)n([C@H]2C[C@H](O)[C@@H](COP(O)(O)=S)O2)cc1F [FdUMPS, 5-Fluoro-2′-deoxyuridine 5′-monothiophosphate]
- inhibition at 0.01 µM ([2]; read-out: Percent Inhibition of Thymidylate Synthetase Activity, 10 nM inhibitor, 1 μM dUMP): 27%
- inhibition at 0.01 µM ([2]; read-out: Percent Inhibition of Thymidylate Synthetase Activity, 10 nM inhibitor, 10 μM dUMP): 13%

SMILES: CC(=O)N[C@H]1[C@H](OCCCCCCNC(=O)CC[C@H](NC(=O)CC[C@H](NC(=O)[C@H](Cc2ccc(O)cc2)NC(=O)C2CCC(CN3C(=O)CC(SCCCCCCOP(O)(=S)OC[C@H]4O[C@@H](n5cc(F)c(=O)[nH]c5=O)C[C@@H]4O)C3=O)CC2)C(=O)NCCCCCCO[C@@H]2O[C@H](CO)[C@H](O)[C@H](O)[C@H]2NC(C)=O)C(=O)NCCCCCCO[C@@H]2O[C@H](CO)[C@H](O)[C@H](O)[C@H]2NC(C)=O)O[C@H](CO)[C@H](O)[C@@H]1O (some centres unmarked) [ps 1-mer, YEE(ahGalNAc)3-SMCC-psFU]
- cellular uptake (Hep G2 cells): 24.98 pmoles/10^6 cells
- stability in media containing 10% FCS [3]: stable
